Test results as given in ChEMBL document CHEMBL4190382, “Targeting lysine specific demethylase 4A (KDM4A) tandem TUDOR domain - A fragment based approach” (Bioorg Med Chem Lett, 2018).
pEC50, pKd, pKi: −log10 of the molar value.

What was measured:
[1] = biological target: T1, Lysine-specific demethylase 4C (Homo sapiens, UniProt Q9H3R0); assay: Binding affinity to 6His-tagged and human KDM4C tandem TUDOR domain (874 to 990 residues) expressed in Escherichia coli BL21(DE3)-T1R by ITC method
T1 sequence (Q9H3R0 whole entry): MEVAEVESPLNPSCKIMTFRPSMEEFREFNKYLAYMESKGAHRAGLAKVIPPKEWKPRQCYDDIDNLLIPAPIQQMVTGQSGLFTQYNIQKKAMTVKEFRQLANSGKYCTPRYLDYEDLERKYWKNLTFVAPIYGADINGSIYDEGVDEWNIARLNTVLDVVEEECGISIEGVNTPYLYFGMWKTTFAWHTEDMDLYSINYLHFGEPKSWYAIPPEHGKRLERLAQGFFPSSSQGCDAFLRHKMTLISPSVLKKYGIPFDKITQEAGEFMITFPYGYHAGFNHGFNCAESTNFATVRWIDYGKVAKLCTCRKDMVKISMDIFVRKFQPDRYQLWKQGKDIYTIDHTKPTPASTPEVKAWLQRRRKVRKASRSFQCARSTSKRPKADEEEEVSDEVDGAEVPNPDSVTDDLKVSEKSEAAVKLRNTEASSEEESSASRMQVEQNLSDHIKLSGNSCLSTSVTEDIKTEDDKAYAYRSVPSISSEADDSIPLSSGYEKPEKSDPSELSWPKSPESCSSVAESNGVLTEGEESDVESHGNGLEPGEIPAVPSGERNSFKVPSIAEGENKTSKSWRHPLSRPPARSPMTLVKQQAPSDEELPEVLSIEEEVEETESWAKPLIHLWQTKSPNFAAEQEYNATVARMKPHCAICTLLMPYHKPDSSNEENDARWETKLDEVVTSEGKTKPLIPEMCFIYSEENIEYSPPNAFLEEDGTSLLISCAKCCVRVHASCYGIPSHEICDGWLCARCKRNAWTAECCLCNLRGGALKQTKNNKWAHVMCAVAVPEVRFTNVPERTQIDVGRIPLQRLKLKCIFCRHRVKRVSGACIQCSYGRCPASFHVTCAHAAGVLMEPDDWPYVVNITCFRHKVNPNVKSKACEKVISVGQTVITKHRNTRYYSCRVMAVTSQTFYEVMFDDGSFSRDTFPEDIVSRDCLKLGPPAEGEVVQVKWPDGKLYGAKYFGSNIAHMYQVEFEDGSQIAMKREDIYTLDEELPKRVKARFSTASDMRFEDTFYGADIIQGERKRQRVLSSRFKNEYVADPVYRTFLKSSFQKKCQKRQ

TP53-binding protein 1 = TP53-binding protein 1 (Homo sapiens, UniProt Q12888); assay: Binding affinity to 6His-tagged and human 53BP1 tandem TUDOR domain (1488 to 1611 residues) expressed in Escherichia coli BL21(DE3)-T1R by ITC method
[2] = biological target: T2, Lysine-specific demethylase 4A (Homo sapiens) (UniProt O75164); assay: (§1) Inhibition of NanoLuc-KDM4A-TUDOR domain (unknown origin) binding to Histone H3.3-HaloTag expressed in 293T cells incubated for 18 hrs by Nano-BRET based target engagement assay; format: cell-based
T2 sequence (whole entry): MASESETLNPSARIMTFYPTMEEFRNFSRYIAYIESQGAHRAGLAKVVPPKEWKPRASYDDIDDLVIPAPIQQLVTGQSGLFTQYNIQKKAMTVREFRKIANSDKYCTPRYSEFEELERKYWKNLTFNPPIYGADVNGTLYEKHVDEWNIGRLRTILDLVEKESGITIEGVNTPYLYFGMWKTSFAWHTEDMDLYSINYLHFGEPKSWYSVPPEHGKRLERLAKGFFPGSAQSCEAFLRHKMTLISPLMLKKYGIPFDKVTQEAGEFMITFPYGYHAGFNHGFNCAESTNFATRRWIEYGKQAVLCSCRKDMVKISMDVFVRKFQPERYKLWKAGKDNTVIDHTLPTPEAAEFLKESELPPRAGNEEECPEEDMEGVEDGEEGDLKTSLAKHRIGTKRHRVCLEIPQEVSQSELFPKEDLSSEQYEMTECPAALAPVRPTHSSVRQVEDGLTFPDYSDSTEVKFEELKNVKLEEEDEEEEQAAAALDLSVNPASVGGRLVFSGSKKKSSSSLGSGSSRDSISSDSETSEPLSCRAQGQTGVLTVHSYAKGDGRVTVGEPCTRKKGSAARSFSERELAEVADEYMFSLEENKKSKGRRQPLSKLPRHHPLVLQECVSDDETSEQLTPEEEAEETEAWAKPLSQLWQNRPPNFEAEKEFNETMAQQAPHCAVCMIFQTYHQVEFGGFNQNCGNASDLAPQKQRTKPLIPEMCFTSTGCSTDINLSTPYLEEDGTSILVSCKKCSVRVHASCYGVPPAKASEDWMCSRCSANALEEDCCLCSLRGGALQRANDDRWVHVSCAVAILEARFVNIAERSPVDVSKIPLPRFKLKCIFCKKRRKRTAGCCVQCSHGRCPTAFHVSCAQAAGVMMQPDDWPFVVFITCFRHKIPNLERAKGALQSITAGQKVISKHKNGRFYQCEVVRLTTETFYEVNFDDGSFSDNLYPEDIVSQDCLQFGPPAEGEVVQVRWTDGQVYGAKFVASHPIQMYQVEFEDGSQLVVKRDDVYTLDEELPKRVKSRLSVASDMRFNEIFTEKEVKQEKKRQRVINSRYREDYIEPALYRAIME

[3] = biological target: T3, Lysine-specific demethylase 4A (Homo sapiens, UniProt O75164); assay: as §1; format: cell-based
T3 sequence (O75164 whole entry): T2 sequence (whole entry)

[4] = biological target: T3, Lysine-specific demethylase 4A; assay: Inhibition of H3(1-10)K4me3 peptide binding to thrombin cleavable N-terminal 6His tagged and 13C-IVLM labeled human KDM4A tandem TUDOR domain (897 to 1011 residues) expressed in Escherichia coli BL21(DE3)-T1R by ITC method

Chain of TP53-binding protein 1 (Q12888 whole entry, the tested form may be a part): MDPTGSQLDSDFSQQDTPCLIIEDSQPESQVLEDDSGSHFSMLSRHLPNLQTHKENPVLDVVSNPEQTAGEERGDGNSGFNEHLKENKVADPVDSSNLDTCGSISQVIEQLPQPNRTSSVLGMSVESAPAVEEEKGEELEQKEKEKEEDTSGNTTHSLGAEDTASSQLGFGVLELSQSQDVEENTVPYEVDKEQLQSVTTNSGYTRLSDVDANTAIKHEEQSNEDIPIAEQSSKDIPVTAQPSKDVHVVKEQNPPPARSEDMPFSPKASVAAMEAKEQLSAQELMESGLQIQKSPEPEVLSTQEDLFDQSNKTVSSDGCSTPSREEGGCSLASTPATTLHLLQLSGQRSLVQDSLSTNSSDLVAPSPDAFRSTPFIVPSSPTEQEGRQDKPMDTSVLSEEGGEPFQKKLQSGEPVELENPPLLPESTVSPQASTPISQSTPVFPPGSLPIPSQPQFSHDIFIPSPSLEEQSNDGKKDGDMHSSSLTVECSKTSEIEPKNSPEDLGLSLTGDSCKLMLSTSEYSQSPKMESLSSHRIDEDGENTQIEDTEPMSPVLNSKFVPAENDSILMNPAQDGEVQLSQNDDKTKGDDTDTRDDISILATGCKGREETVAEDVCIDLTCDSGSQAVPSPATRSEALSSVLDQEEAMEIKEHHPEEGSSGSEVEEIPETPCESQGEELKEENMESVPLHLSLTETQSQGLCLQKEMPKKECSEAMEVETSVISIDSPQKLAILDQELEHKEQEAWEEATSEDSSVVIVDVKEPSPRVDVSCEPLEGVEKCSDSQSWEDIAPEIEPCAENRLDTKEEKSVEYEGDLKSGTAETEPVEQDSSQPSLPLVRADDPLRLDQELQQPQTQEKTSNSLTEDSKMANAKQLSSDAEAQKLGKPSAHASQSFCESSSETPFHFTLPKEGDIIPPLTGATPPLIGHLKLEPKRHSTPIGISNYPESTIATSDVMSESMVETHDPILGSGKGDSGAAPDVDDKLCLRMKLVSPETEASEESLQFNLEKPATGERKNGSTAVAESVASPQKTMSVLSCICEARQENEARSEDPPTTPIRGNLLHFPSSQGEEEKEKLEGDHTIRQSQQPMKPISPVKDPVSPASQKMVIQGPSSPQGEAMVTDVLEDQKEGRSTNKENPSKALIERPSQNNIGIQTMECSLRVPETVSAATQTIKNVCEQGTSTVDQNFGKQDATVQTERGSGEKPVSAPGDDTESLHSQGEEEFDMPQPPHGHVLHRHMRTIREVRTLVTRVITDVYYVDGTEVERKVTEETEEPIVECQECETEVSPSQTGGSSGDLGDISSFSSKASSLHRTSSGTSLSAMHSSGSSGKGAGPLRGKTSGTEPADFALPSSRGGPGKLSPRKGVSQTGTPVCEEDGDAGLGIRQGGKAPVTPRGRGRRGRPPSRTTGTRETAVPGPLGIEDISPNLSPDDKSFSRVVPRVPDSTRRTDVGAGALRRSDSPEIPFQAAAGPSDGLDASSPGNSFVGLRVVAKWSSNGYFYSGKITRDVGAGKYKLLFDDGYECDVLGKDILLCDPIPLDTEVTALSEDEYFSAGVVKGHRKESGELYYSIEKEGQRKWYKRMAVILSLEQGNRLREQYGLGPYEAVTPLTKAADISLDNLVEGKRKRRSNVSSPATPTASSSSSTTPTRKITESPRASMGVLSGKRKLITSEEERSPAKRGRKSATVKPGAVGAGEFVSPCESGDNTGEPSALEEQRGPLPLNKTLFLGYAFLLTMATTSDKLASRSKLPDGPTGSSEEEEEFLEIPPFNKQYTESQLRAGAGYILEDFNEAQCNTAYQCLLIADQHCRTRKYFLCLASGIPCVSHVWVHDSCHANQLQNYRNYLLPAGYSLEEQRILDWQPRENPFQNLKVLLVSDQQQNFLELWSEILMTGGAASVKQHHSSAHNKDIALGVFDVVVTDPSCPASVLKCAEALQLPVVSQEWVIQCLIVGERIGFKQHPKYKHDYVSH

pKd [1]: 3.89
Kd (TP53-binding protein 1): Not Active
inhibition [2]: Dose-dependent effect
pEC50 [3]: 3.98
pKi [4]: 3.77
Structure (SMILES): CN(C)C[C@H]1C2CCC(c3ccccc3)(C2)[C@H]1O (stereo not given in full)
